Experiment: Atomic Absorption analysis of top and bottom layers for Zn2+
Format: physicochemical
Conditions: overall 1% ZnCl2 (4800 ppm)
Method: Results are similar with Zn^2+ as the cation. […] The concentration of Zn^2+ in the top layer was measured as 1400 ppm Zn^2+ while the bottom was 8800 ppm, i.e., 6.3 fold higher concentration vs. the top.

Zn2+ concentration, bottom vs. the top: 6.3 fold
concentration of Zn2+ in the bottom layer: 8800 ppm
concentration of Zn2+ in the top layer: 1400 ppm
Structure (SMILES): [Cl-].[Cl-].[Zn+2] [ZnCl2]

Source: patent publication US12478574B2, “Oral care compositions” (Colgate-Palmolive Company, priority 2016, dated 2025)
